Data as given in patent US20210368850A1, “VAPORIZABLE FORMULATION” (NICOVENTURES TRADING LIMITED, priority 2018, published 2021).

Assays:
[1] = cited from earlier work; for Vapor pressure (mmHg) @ 25° C.: approximate, from the literature
[2] = Thermogravimetric analysis (TGA) of mass loss on heating; assay type: physicochemical; conditions: 30° C. to 600° C. at 5° C./min; for Tpeak of mass loss (° C.) Air (rep 1) / Tpeak of mass loss (° C.) Air (rep 2): TGA in air; for Tpeak of mass loss (° C.) Nitrogen (rep 1) / Tpeak of mass loss (° C.) Nitrogen (rep 2): TGA in nitrogen
Protocol: Prior to panel testing, the cooling agents were subjected to thermogravimetric analysis (TGA) to understand their behavior as they are heated. As is known in the art, TGA is an analytical method which can monitor the mass loss of a sample as it is heated to temperatures of up to 1000° C. and higher.
All measurements were carried out on a Perkin Elmer STA6000 TGA thermogravimetric analyzer. For solid samples, a spatula was used to transfer 5-20 mg of material into the crucible of the analyzer. Oils were introduced to the instrument by transferring 5-20 mg using a Pasteur pipette onto a small portion of Cambridge filter pad which was placed in the crucible. All samples were heated from 30° C. to 600° C. at a constant rate of 5° C./min. This was carried out for each compound twice in air and twice in nitrogen. For a small number of samples, the run was stopped at 500-600° C. when full mass loss had been observed. For comparative purposes, menthol was also analyzed.
The onset temperature of mass loss for each compound was determined by visual inspection of the TGA traces on the computer software and the results are summarized in Table 2.

volunteers [3] = experiment: Example 1 observational testing: perceived cooling intensity, Vype eTank Pro e-cigarette; assay type: in vivo; conditions: 10 volunteers
Protocol: 10 volunteers were asked to use each cooling agent sample in a Vype eTank Pro (an electronic cigarette device). All cooling agents were used at a concentration of 0.18% except for menthol which in one sample was used at the current commercial concentration of 1.235%. Each of the menthol samples were tested for comparative purposes.
(§1) Each volunteer was asked to assess the cooling intensity on an objective basis (i.e. not considering personal preference) and a subjective basis. The objective assessment required the volunteer to rate the overall perceived cooling intensity from 0 to 10, where 0 was no cooling perceivable and 10 was very strong cooling sensation, and to place the cooling sensation, e.g. in the mouth, throat etc. The subjective assessment required the cooling intensity to be ranked as (1) much too low, (2) slightly too low, (3) just right, (4) slightly too high or (5) much too high.

[4] = from the literature, cited from earlier work; for Boiling point (° C.) @ 760 mmHg unless stated: @ 760 mmHg (atmospheric pressure), approximate
volunteers [5] = experiment: Example 2: cooling intensity of WS-3 e-liquid samples, eTank Pro e-cigarette; assay type: in vivo; conditions: minimum of 4 volunteers, scale 0-10
From the text: A minimum of 4 volunteers were asked to test each of the following e-liquid samples in an eTank Pro (an electronic cigarette device): • WS-3 at 2.5 wt % in glycerol/propylene glycol; • WS-3 at 5 wt % in glycerol/propylene glycol; and • WS-3 at 10 wt % in glycerol/propylene glycol.
as §1, with “basis in the same manner as Example 1.” for “basis.”

[6] = 0.18% in e-liquid, 0 = no cooling perceivable, 10 = very strong cooling sensation

SMILES | Vapor pressure (mmHg) @ 25° C. [1] [mmHg] | Tpeak of mass loss (° C.) Air (rep 1) [2] [°C] | Tpeak of mass loss (° C.) Air (rep 2) [2] [°C] | Tpeak of mass loss (° C.) Nitrogen (rep 1) [2] [°C] | Tpeak of mass loss (° C.) Nitrogen (rep 2) [2] [°C] | Average Cooling Intensity (0-10) (volunteers [3]; [6]) | Boiling point (° C.) @ 760 mmHg unless stated [4] | Average Cooling Intensity (0-10) (volunteers [5]; 2.5 wt % in glycerol/propylene glycol) | Average Cooling Intensity (0-10) (volunteers [5]; 5 wt % in glycerol/propylene glycol) | Average Cooling Intensity (0-10) (volunteers [5]; 10 wt % in glycerol/propylene glycol) | Vapor pressure ([1]; 25° C.) | Average Cooling Intensity (0-10) (volunteers [3]; 1.235% (current commercial concentration) in e-liquid, scale 0-10) | Boiling point (° C.) ([4]; @ 2.00 mmHg)
CC(C)[C@@H]1CC[C@@H](C)CC12OCC(CO)O2 (single isomer, unassigned; (-)) [Frescolat ® MGA, (−)-menthone 1,2-glycerol ketal] | 2.15E−5 | 93 | 85 | 102 | 94 | 1 | 138-142 °C | – | – | – | – | – | –
CCNC(=O)[C@H]1C[C@@H](C)CC[C@@H]1C(C)C (stereo in doubt) [WS-3, (1S,2R,5S)-N-ethyl-5-methyl-2-(propan-2-yl)cyclohexanecarboxamide] | 8.50E−5 | 127 | 132 | 132 | 128 | 3.045 | 340.55 °C | 6 | 8.5 | 9.8 | – | – | –
CC(C)[C@@H]1CC[C@@H](C)C[C@H]1OCC(O)CO (stereo partly drawn) [Coolact ® 10, 3-((−)-menthoxy)propane-1,2-diol] | 9.88E−7 | 119 | 112 | 115 | 119 | 0.75 | 362.8 ± 22.0 °C | – | – | – | – | – | –
CC(C)[C@@H]1CC[C@@H](C)C[C@H]1C(=O)NCCc1ccccn1 [Evercool ® 190, (1R,2S,5R)-N-(2-(pyridin-2-yl)ethyl)menthylcarboxamide] | 1.06E−8 | 161 | 164 | 169 | 174 | 7.1 | 461.6 ± 24.0 °C | – | – | – | – | – | –
CC(O)C(=O)O[C@@H]1C[C@H](C)CC[C@H]1C(C)C (stereo partly drawn) [Frescolat ® ML, (−)-menthyl lactate] | 8.58E−5 | 86 | 88 | 86 | 91 | 2 | 304.0 ± 15.0 °C | – | – | – | – | – | –
CC1CCC(C(C)C)C(O)C1 (stereo not shown) [Menthol, menthol, reference compound] | – | 53 | 55 | 52 | 55 | 2.1 | 212 °C | – | – | – | approximately 1.02 Pa | 8 | –
CC(C)[C@@H]1CC[C@@H](C)C[C@H]1OC(=O)CCC(=O)O [Monomenthyl succinate, (−)-menthyl succinate] | 1.23E−6 | 144 | 148 | 151 | 151 | – | 374.35 °C | – | – | – | – | – | –
CCOC(=O)CNC(=O)[C@@H]1C[C@H](C)CC[C@H]1C(C)C [WS-5, ethyl-2-[[(1R,2S,5R)-5-methyl-2-propan-2-ylcyclohexanecarbonyl]amino] acetate] | – | 149 | 151 | 154 | 158 | 2.5454 | – | – | – | – | – | – | 151.00 (@ 2.00 mmHg) ° C.
COc1ccc(NC(=O)[C@@H]2C[C@H](C)CC[C@H]2C(C)C)cc1 [WS-12] | 3.25E−8 | 202 | 203 | 199 | 197 | – | 447.8 ± 28.0 °C | – | – | – | – | – | –
CNC(=O)C(C)(C(C)C)C(C)C [WS-23, N,2,3-trimethyl-2-propan-2-ylbutanamide] | – | 88 | 88 | 90 | 86 | 2.1818 | 233.00-234.00 °C | – | – | – | – | – | –
